Measured values: patent US10774071B2, “PD-1/PD-L1 inhibitors” (Gilead Sciences, Inc., priority 2018, dated 2020)

How the values were obtained:
[1] = molecular target: PD-1/PD-L1 (Homo sapiens (Human), UniProt Q9NZQ7); experiment: PD-1/PD-L1 biochemical protein-protein interaction assay (ALPHA); assay type: binding; conditions: 0.3 nM His tagged PD-L1, 2.5 nM biotinylated Fc-PD-1, Table 3B, read-out: IC50 PD-L1-PD1
[2] = molecular target: PD-L1 (Homo sapiens (Human), UniProt Q9NZQ7); experiment: PD-L1/PD-L1 dimerization biochemical protein-protein interaction assay (ALPHA); assay type: binding; conditions: 0.5 nM His tagged PD-L1 and 0.5 nM FLAG tagged PD-L1, Table 4B, read-out: AC50 PDL1 Dimer 1 nM
Sequence of PD-L1 (Q9NZQ7 19-238): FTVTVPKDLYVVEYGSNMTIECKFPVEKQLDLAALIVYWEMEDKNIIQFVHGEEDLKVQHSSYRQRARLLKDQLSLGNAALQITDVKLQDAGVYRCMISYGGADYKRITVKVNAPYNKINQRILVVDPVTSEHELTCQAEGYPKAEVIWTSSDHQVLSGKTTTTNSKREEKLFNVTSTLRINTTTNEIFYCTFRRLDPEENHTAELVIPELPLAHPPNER
Sequence of PD-L1 (Q9NZQ7 19-238): as above

Sequence of PD-1/PD-L1 (Q9NZQ7 19-238): as above

IC50 [1] [nM] | AC50 [2] [nM] | SMILES
0.08 | 66.5 | COc1nc(O[C@H]2CCc3c(-c4cccc(-c5cc(C)c(CN6CC(C)(O)C6)c(OC)n5)c4Cl)cccc32)c(Cl)cc1CN1CC2(C(=O)O)CCC1CC2 [B-57]
0.064 | 49.7 | COc1nc(O[C@H]2CCc3c(-c4cccc(-c5cc(C)c(CN6CC(C)(O)C6)c(OC)n5)c4Cl)cccc32)c(Cl)cc1CN1CC[C@@H](C(=O)O)C1 [B-58]
0.113 | 107 | COc1nc(O[C@H]2CCc3c(-c4cccc(-c5cc(C)c(CN6CC(C)(O)C6)c(OC)n5)c4Cl)cccc32)c(Cl)cc1CN1CC(C(=O)O)C1 [B-59]
0.064 | 55.6 | COc1nc(O[C@H]2CCc3c(-c4cccc(-c5cc(C)c(CN6CC(C)(O)C6)c(OC)n5)c4Cl)cccc32)c(Cl)cc1CN1CC[C@H](C(=O)O)C1 [B-60]
0.064 | 6.22 | COc1nc(-c2cccc(-c3cccc4c3CC[C@@H]4Oc3nc(OC)c(CN4CC5(C(=O)O)CCC4CC5)cc3C(F)(F)F)c2Cl)ccc1CNC[C@@H]1CCC(=O)N1 [B-61]
0.064 | 9.3 | COc1nc(-c2cccc(-c3cccc4c3CC[C@@H]4Oc3nc(OC)c(CN4CC[C@@H](C(=O)O)C4)cc3C(F)(F)F)c2Cl)ccc1CNC[C@@H]1CCC(=O)N1 [B-62]
0.064 | 7.82 | COc1nc(-c2cccc(-c3cccc4c3CC[C@@H]4Oc3nc(OC)c(CN4CC(C(=O)O)C4)cc3C(F)(F)F)c2Cl)ccc1CNC[C@@H]1CCC(=O)N1 [B-63]
0.076 | 40.5 | COc1nc(-c2cccc(-c3cccc4c3CC[C@@H]4Oc3nc(OC)c(CN4CCC(NC(C)=O)C4)cc3Cl)c2Cl)ccc1CNC[C@@H]1CCC(=O)N1 (stereo partly shown) [B-64]
0.064 | 48 | COc1nc(-c2cccc(-c3cccc4c3CC[C@@H]4Oc3nc(OC)c(CN4CC5(C(=O)O)CCC4CC5)cc3Cl)c2C#N)ccc1CNC[C@@H]1CCC(=O)N1 [B-68]
0.064 | 156 | COc1nc(O[C@H]2CCc3c(-c4cccc(-c5cnc(CNC[C@@H]6CCC(=O)N6)c(OC)n5)c4C#N)cccc32)c(Cl)cc1CN1CC[C@@H](C(=O)O)C1 [B-69]
0.064 | 31.9 | COc1nc(-c2cccc(-c3cccc4c3CC[C@@H]4Oc3nc(OC)c(CN4CC(C(=O)O)C5(CCOC5)C4)cc3Cl)c2Cl)ccc1CNC[C@@H]1CCC(=O)N1 (stereo partly shown) [B-70]
0.064 | 35.7 | COc1nc(-c2cccc(-c3cccc4c3CC[C@@H]4Oc3nc(OC)c(CN4CC(C(=O)O)C5(CCC5)C4)cc3Cl)c2Cl)ccc1CNC[C@@H]1CCC(=O)N1 (stereo partly shown) [B-71]
0.064 | 25.8 | COc1nc(-c2cccc(-c3cccc4c3CC[C@@H]4Oc3nc(OC)c(CN4CC(C(=O)O)C5(CC5)C4)cc3Cl)c2Cl)ccc1CNC[C@@H]1CCC(=O)N1 (stereo partly shown) [B-72]
0.064 | 81.7 | COc1nc(-c2cccc(-c3cccc4c3CC[C@@H]4Oc3nc(OC)c(CN4CC[C@@H](C(=O)O)C4)cc3Cl)c2C#N)ccc1CNC[C@@H]1CCC(=O)N1 [B-73]
0.064 | 94.1 | COc1nc(-c2cccc(-c3cccc4c3CC[C@@H]4Oc3nc(OC)c(CN4CC(C(=O)O)C4)cc3Cl)c2C#N)ccc1CNC[C@@H]1CCC(=O)N1 [B-74]
0.064 | 60.4 | COc1nc(-c2cccc(-c3cccc4c3CC[C@@H]4Oc3nc(OC)c(CN4CC5(C(=O)O)CCC4CC5)cc3Cl)c2C)ccc1CNC[C@@H]1CCC(=O)N1 [B-77]
0.064 | 57.9 | COc1nc(-c2cccc(-c3cccc4c3CC[C@@H]4Oc3nc(OC)c(CN4CC[C@@H](C(=O)O)C4)cc3Cl)c2C)ccc1CNC[C@@H]1CCC(=O)N1 [B-78]
0.064 | 46.9 | COc1nc(O[C@H]2CCc3c(-c4cccc(-c5cnc(CNC[C@@H]6CCC(=O)N6)c(OC)n5)c4C)cccc32)c(Cl)cc1CN1CC2(C(=O)O)CCC1CC2 [B-80]
0.064 | 118 | COc1nc(O[C@H]2CCc3c(-c4cccc(-c5cnc(CNC[C@@H]6CCC(=O)N6)c(OC)n5)c4C)cccc32)c(Cl)cc1CN1CC[C@@H](C(=O)O)C1 [B-81]
0.064 | 37.8 | COc1nc(-c2cccc(-c3cccc4c3CC[C@@H]4Oc3nc(OC)c(CN4CCN(C)C(C(=O)O)C4)cc3Cl)c2Cl)ccc1CNC[C@@H]1CCC(=O)N1 (stereo partly shown) [B-82]
0.064 | 211 | COc1nc(-c2cccc(-c3cccc4c3CC[C@@H]4Oc3nc(OC)c(CN4C[C@@H]5CCC[C@]5(C(=O)O)C4)cc3Cl)c2Cl)ccc1CN1CC(C)(O)C1 [B-83]
0.064 | 50.3 | COc1nc(-c2cccc(-c3cccc4c3CC[C@@H]4Oc3nc(OC)c(CN4CC[C@@H](C(=O)O)C4)cc3Cl)c2Cl)ccc1CN1CC(C)(O)C1 [B-85]
0.235 | 109 | CNC(=O)C1CCN(Cc2cc(Cl)c(O[C@H]3CCc4c(-c5cccc(-c6ccc(CN7CC(C)(O)C7)c(OC)n6)c5Cl)cccc43)nc2OC)C1 (stereo partly shown) [B-86]
0.064 | 90.7 | CNC(=O)C1CCN(Cc2ccc(-c3cccc(-c4cccc5c4CC[C@@H]5Oc4nc(OC)c(CN5CCC(C(=O)NC)C5)cc4Cl)c3Cl)nc2OC)C1 (stereo partly shown) [B-87]

IC50 [1] [nM] | AC50 [2] [nM] | SMILES
0.064 | 26.4 | CNC(=O)C1CCN(Cc2cc(Cl)c(O[C@H]3CCc4c(-c5cccc(-c6ccc(CNC[C@@H]7CCC(=O)N7)c(OC)n6)c5Cl)cccc43)nc2OC)C1 (stereo partly shown) [B-88]
0.387 | 85 | CNC(=O)CCNCc1ccc(-c2cccc(-c3cccc4c3CC[C@@H]4Oc3nc(OC)c(CNCCC(=O)NC)cc3Cl)c2Cl)nc1OC [B-89]
0.111 | 18.7 | CNC(=O)CCNCc1cc(Cl)c(O[C@H]2CCc3c(-c4cccc(-c5ccc(CNC[C@@H]6CCC(=O)N6)c(OC)n5)c4Cl)cccc32)nc1OC [B-90]
0.064 | 33.8 | COc1nc(O[C@H]2CCc3c(-c4cccc(-c5cnc([C@H](C)NC[C@@H]6CCC(=O)N6)c(OC)n5)c4Cl)cccc32)c(Cl)cc1CN1CC[C@@H](C(=O)O)C1 [B-91]
0.064 | 54.5 | COc1nc(-c2cccc(-c3cccc4c3CC[C@@H]4Oc3nc(OC)c(CN4C[C@@H]5CCC[C@]5(C(=O)O)C4)cc3Cl)c2Cl)ccc1CNC[C@@H]1CCC(=O)N1 [B-92]
0.064 | 55 | COc1nc(-c2cccc(-c3cccc4c3CC[C@@H]4Oc3nc(OC)c(CN4C[C@@H]5CC[C@]5(C(=O)O)C4)cc3Cl)c2Cl)ccc1CNC[C@@H]1CCC(=O)N1 [B-93]
0.068 | 103 | COC(=O)[C@H]1[C@@H]2CN(Cc3cc(Cl)c(O[C@H]4CCc5c(-c6cccc(-c7ccc(CNC[C@@H]8CCC(=O)N8)c(OC)n7)c6Cl)cccc54)nc3OC)C[C@@H]21 [B-94]
0.064 | 36.2 | COc1nc(-c2cccc(-c3cccc4c3CC[C@@H]4Oc3nc(OC)c(CN4C[C@@H]5C[C@]5(C(=O)O)C4)cc3Cl)c2Cl)ccc1CNC[C@@H]1CCC(=O)N1 [B-95]
0.064 | 48.7 | COc1nc(O[C@H]2CCc3c(-c4cccc(-c5cnc(CNC[C@@H]6CCC(=O)N6)cn5)c4Cl)cccc32)c(Cl)cc1CN1CC(C(=O)O)C1 [B-96]
0.064 | 66.4 | COc1nc(O[C@H]2CCc3c(-c4cccc(-c5cnc(CNC[C@@H]6CCC(=O)N6)cn5)c4Cl)cccc32)c(Cl)cc1CN1CC[C@@H](C(=O)O)C1 [B-97]
0.111 | 54.3 | COc1nc(-c2cccc(-c3cccc4c3CC[C@@H]4Oc3nc(OC)c(CN4CC5CCC4C(C(=O)O)C5)cc3Cl)c2Cl)ccc1CNC[C@@H]1CCC(=O)N1 (stereo partly shown) [B-98]
0.086 | 67.9 | COc1nc(-c2cccc(-c3cccc4c3CC[C@@H]4Oc3nc(OC)c(CN4CC5CC5(C(=O)O)C4)cc3Cl)c2Cl)ccc1CNC[C@@H]1CCC(=O)N1 (stereo partly shown) [B-99]
0.201 | 64.8 | CNC(=O)C1CN(Cc2cc(Cl)c(O[C@H]3CCc4c(-c5cccc(-c6ccc(CNC[C@@H]7CCC(=O)N7)c(OC)n6)c5Cl)cccc43)nc2OC)C1 [B-101]
0.146 | 80.6 | COc1nc(-c2cccc(-c3cccc4c3CC[C@@H]4Oc3nc(OC)c(CN4CC(C)(O)C4)cc3Cl)c2Cl)ccc1CNC[C@@H]1CCC(=O)N1 [B-102]
0.234 | 58.5 | COc1nc(-c2cccc(-c3cccc4c3SC[C@@H]4Oc3nc(OC)c(CNC[C@@H]4CCC(=O)N4)cc3Cl)c2Cl)ccc1CNC[C@@H]1CCC(=O)N1 [B-103]
0.064 | 41.3 | COc1nc(-c2cccc(-c3cccc4c3CC[C@@H]4Oc3nc(OC)c(CN4C[C@H](C(=O)O)[C@@H](C)C4)cc3Cl)c2Cl)ccc1CNC[C@@H]1CCC(=O)N1 [B-106]
0.064 | 20.1 | COc1nc(-c2cccc(-c3cccc4c3CC[C@@H]4Oc3nc(OC)c(CN4C[C@@H](C)[C@H](C(=O)O)C4)cc3Cl)c2Cl)ccc1CNC[C@@H]1CCC(=O)N1 [B-107]
0.064 | 20.7 | COc1nc(-c2cccc(-c3cccc4c3CC[C@@H]4Oc3nc(OC)c(CN4CC[C@H](C(=O)O)C4)cc3Cl)c2Cl)ccc1CNC[C@@H]1CCC(=O)N1 [B-114]
0.064 | 26.3 | COc1nc(-c2cccc(-c3cccc4c3CC[C@@H]4Oc3nc(OC)c(CN4CCC(C(=O)O)CC4)cc3Cl)c2Cl)ccc1CNC[C@@H]1CCC(=O)N1 [B-115]
0.064 | 35.5 | COc1nc(O[C@H]2CCc3c(-c4cccc(-c5ccc(CNC[C@@H]6CCC(=O)N6)c(Cl)c5)c4Cl)cccc32)c(Cl)cc1CNC1(C(=O)O)CC1 [B-116]
0.064 | 0.813 | COc1cc(-c2cccc(-c3cccc4c3CC[C@@H]4Oc3nc(OC)c(CN4CC[C@@H]5C[C@@]54C(=O)O)cc3C(F)(F)F)c2Cl)ccc1CNC[C@@H]1CCC(=O)N1 [B-117]
0.064 | 0.988 | COc1cc(-c2cccc(-c3cccc4c3CC[C@@H]4Oc3nc(OC)c(CN4CCC[C@@]4(C)C(=O)O)cc3C(F)(F)F)c2Cl)ccc1CNC[C@@H]1CCC(=O)N1 [B-118]
0.064 | 24.5 | COc1nc(-c2cccc(-c3cccc4c3CC[C@@H]4Oc3nc(OC)c(C(C)N4CC(C(=O)O)C4)cc3C(F)(F)F)c2Cl)ccc1CNC[C@@H]1CCC(=O)N1 (stereo partly shown) [B-119]
